Measurements reported in patent publication US20220324835A1 (Nurix Therapeutics, Inc., priority 2018, published 2022).

Experiments:
Cbl-b [1] = target: T1, Cbl-b (Homo sapiens, UniProt Q13191); assay: Cbl-b inhibition assay (Cbl-b activity assay, FRET, Biological Example 1; 100 mM NaCl, 60 nM Src kinase); type: biochemical; conditions: upper bound stated in text lists; read-out: IC50 values in the Cbl-b inhibition assay of Biological Example 1
In short: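 Steps: Src kinase phosphorylates N-terminal biotinylated Avi-tagged Cbl-b; phosphorylated Cbl-b binds Bodipy-fluorescein ubiquitin-loaded UbcH5B; streptavidin-terbium on Cbl-b sits close to the fluorescein label, producing FRET. Inhibitors block UbcH5B-Ub binding.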

Cbl-b [2] = target: T1, Cbl-b; assay: Cbl-b activity assay (Cbl-b inhibition assay), TR-FRET of Cbl-b interaction with UbcH5B-Ub; type: biochemical
In short: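 TR-FRET readout of Cbl-b binding to Bodipy-fluorescein N-terminally labeled Ub conjugated to UbcH5B C85K, measured with compound present. After compound incubation, 60 nM Src kinase with 1 mM ATP and 5 mM MgCl2 (final) was added for 1.5 h, then a further 1 h incubation; asterisked values used 50 mM NaCl buffer and 30 nM Src.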

Cbl-b (residues 36-427) = Cbl-b (residues 36-427) (Homo sapiens, UniProt Q13191); assay: Cbl-b binding assay (SPR, Biacore T200); conditions: 20° C., 1:1 binding model
Cbl-b (residues 36-427), sequence (Q13191 36-427): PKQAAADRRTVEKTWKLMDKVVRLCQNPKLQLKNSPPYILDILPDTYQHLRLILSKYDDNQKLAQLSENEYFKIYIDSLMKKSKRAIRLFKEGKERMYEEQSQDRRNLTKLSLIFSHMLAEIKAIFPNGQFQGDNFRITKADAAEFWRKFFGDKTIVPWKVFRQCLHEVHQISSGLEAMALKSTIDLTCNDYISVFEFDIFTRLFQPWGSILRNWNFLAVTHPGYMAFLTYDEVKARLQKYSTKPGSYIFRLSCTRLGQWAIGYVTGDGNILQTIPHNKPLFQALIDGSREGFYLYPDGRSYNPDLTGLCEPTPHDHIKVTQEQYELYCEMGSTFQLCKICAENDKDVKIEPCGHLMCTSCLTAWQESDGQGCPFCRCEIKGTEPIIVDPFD
In short: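 Affinities derived from global 1:1 steady-state or kinetic fits of double-referenced, solvent-corrected SPR data, 20 °C, NeutrAvidin-capture chip. Compound series (top 100 or 50 μM, 8–10 points) injected 50 s, 90–180 s dissociation. Asterisked values used 50 mM instead of 100 mM NaCl and 30 nM Src kinase.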

[3] = assay buffer with 100 mM NaCl, 60 nM Src kinase, read-out: Cbl-b activity IC50
[4] = * assay buffer containing 50 mM NaCl instead of 100 mM NaCl and 30 nM Src kinase instead of 60 nM, read-out: Cbl-b activity IC50 (μM)*

T1 sequence (Q13191 36-427): as above

Row | Compound | IC50 (Cbl-b [1]) [µM] | IC50 (Cbl-b [2]; [3]) [µM] | Kd (Cbl-b (residues 36-427)) [µM] | IC50 (Cbl-b [2]; [4]) [µM]
1 | CCc1cccc(C(=O)Nc2cc([C@H](C)Sc3nncn3C)ccn2)n1 [Compound 123, (S)-6-ethyl-N-(4-(1-((4-methyl-4H-1,2,4-triazol-3-yl)thio)ethyl)pyridin-2-yl)picolinamide] | ≤ 10 | 1 to 3 | 3 to 10 | 
2 | C[C@H](Sc1nncn1C)c1ccnc(NC(=O)c2cccc(Cl)n2)c1 [Compound 124, 6-chloro-N-[4-[(LV)-1-[(4-methyl-1,2,4-triazol-3-yl)sulfanyl]ethyl]-2-pyridyl]pyridine-2-carboxamide] | ≤ 10 | 1 to 3 | 3 to 10 | 
3 | COc1nc(C(=O)Nc2cc([C@H](C)Sc3nncn3C)ccn2)ccc1Cl [Compound 125, (S)-5-chloro-6-methoxy-N-(4-(1-((4-methyl-4H-1,2,4-triazol-3-yl)thio)ethyl)pyridin-2-yl)picolinamide] | ≤ 10 | 1 to 3 | 3 to 10 | 
4 | C[C@H](Sc1nncn1C)c1ccnc(NC(=O)c2cc(N3CC[C@H](O)C3)cc(C(F)(F)F)n2)c1 [Compound 126, 4-[(3S)-3-hydroxypyrrolidin-1-yl]-N-[4-[(1S)-1-[(4-methyl-1,2,4-triazol-3-yl)sulfanyl]ethyl]-2-pyridyl]-6-(trifluoromethyl)pyridine-2-carboxamide] | ≤ 10 | 1 to 3 | 3 to 10 | 
5 | C=CCC(Sc1nncn1C)c1cccc(NC(=O)c2ccc3ccccc3n2)c1 (centres unmarked) [Compound 134, N-[3-[1-[(4-methyl-1,2,4-triazol-3-yl)sulfanyl]but-3-enyl]phenyl]quinoline-2-carboxamide] | ≤ 10 | 1 to 3 | > 10 | 1 to 3
6 | C=CCC(Sc1nncn1C)c1cccc(NC(=O)c2cc3ccccc3cn2)c1 (centres unmarked) [Compound 135, N-[3-[1-[(4-methyl-1,2,4-triazol-3-yl)sulfanyl]but-3-enyl]phenyl]isoquinoline-3-carboxamide] | ≤ 10 | 1 to 3 | > 10 | 3 to 10
7 | C[C@H](Sc1nncn1C)c1cccc(NC(=O)c2cc(C(=O)N3CCCC3)ccn2)c1 [Compound 138, (S)-N-(3-(1-((4-methyl-4H-1,2,4-triazol-3-yl)thio)ethyl)phenyl)-4-(pyrrolidine-1-carbonyl)picolinamide] | ≤ 10 | 3 to 10 | > 10 | 
8 | C[C@H](Sc1nncn1C)c1cccc(NC(=O)c2cc(C(=O)N3CC[C@@H](O)C3)ccn2)c1 [Compound 139, 4-((R)-3-hydroxypyrrolidine-1-carbonyl)-N-(3-((S)-1-((4-methyl-4H-1,2,4-triazol-3-yl)thio)ethyl)phenyl)picolinamide] | ≤ 10 | 3 to 10 | 3 to 10 | 
9 | CO[C@@H]1CCN(C(=O)c2ccnc(C(=O)Nc3cccc([C@H](C)Sc4nncn4C)c3)c2)C1 [Compound 141, 4-((R)-3-methoxypyrrolidine-1-carbonyl)-N-(3-((S)-1-((4-methyl-4H-1,2,4-triazol-3-yl)thio)ethyl)phenyl)picolinamide] | ≤ 10 | 3 to 10 | 3 to 10 | 
10 | C[C@H](Sc1nncn1C)c1cccc(NC(=O)c2cc(C(=O)N3CCC3)ccn2)c1 [Compound 143, (S)-4-(azetidine-1-carbonyl)-N-(3-(1-((4-methyl-4H-1,2,4-triazol-3-yl)thio)ethyl)phenyl)picolinamide] | ≤ 10 | 3 to 10 | 3 to 10 | 
11 | C[C@H](Sc1nncn1C)c1cccc(NC(=O)c2cc(C(=O)N3CCCCC3)ccn2)c1 [Compound 144, (S)-N-(3-(1-((4-methyl-4H-1,2,4-triazol-3-yl)thio)ethyl)phenyl)-4-(piperidine-1-carbonyl)picolinamide] | ≤ 10 | 3 to 10 | 3 to 10 | 
12 | C[C@H](Sc1nncn1C)c1cccc(NC(=O)c2cc(C(=O)N3CCC(O)CC3)ccn2)c1 [Compound 145, (S)-4-(4-hydroxypiperidine-1-carbonyl)-N-(3-(1-((4-methyl-4H-1,2,4-triazol-3-yl)thio)ethyl)phenyl)picolinamide] | ≤ 10 | 1 to 3 | 3 to 10 | 
13 | C[C@H](Sc1nncn1C)c1cccc(NC(=O)c2cc(C(=O)N3CC[C@@H](N)C3)ccn2)c1 [Compound 146, 4-((R)-3-aminopyrrolidine-1-carbonyl)-N-(3-((S)-1-((4-methyl-4H-1,2,4-triazol-3-yl)thio)ethyl)phenyl)picolinamide] | ≤ 10 | 3 to 10 | 3 to 10 | 
14 | C[C@H](Sc1nncn1C)c1cccc(NC(=O)c2cc(C(=O)N3CC[C@H](N)C3)ccn2)c1 [Compound 147, 4-((S)-3-aminopyrrolidine-1-carbonyl)-N-(3-((S)-1-(4-methyl-4H-1,2,4-triazol-3-ylthio)ethyl)phenyl)picolinamide] | ≤ 10 | 3 to 10 | 3 to 10 | 
15 | C[C@H](Sc1nncn1C)c1cccc(NC(=O)c2cc(C(=O)N3CCC[C@@H](O)C3)ccn2)c1 [Compound 149, 4-((R)-3-hydroxypiperidine-1-carbonyl)-N-(3-((S)-1-((4-methyl-4H-1,2,4-triazol-3-yl)thio)ethyl)phenyl)picolinamide] | ≤ 10 | 3 to 10 | > 10 | 
16 | C[C@H](Sc1nncn1C)c1cccc(NC(=O)c2cc(C(=O)N3CCC[C@H](O)C3)ccn2)c1 [Compound 150, 4-((S)-3-hydroxypiperidine-1-carbonyl)-N-(3-((S)-1-((4-methyl-4H-1,2,4-triazol-3-yl)thio)ethyl)phenyl)picolinamide] | ≤ 10 | 3 to 10 | > 10 | 
17 | C[C@H](Sc1nncn1C)c1cccc(NC(=O)c2cc(C(=O)N3C[C@@H](O)C[C@H]3C)ccn2)c1 [Compound 152, 4-((2R,4S)-4-hydroxy-2-methylpyrrolidine-1-carbonyl)-N-(3-((S)-1-((4-methyl-4H-1,2,4-triazol-3-yl)thio)ethyl)phenyl)picolinamide] | ≤ 10 | 3 to 10 | 3 to 10 | 
18 | C[C@H](Sc1nncn1C)c1cccc(NC(=O)c2cc(C(=O)N3C[C@H](O)C[C@H]3C)ccn2)c1 [Compound 153, 4-((2R,4R)-4-hydroxy-2-methylpyrrolidine-1-carbonyl)-N-(3-((S)-1-((4-methyl-4H-1,2,4-triazol-3-yl)thio)ethyl)phenyl)picolinamide] | ≤ 10 | 3 to 10 | > 10 | 
19 | C[C@H](Sc1nncn1C)c1cccc(NC(=O)c2cc(C(=O)N3C[C@@H](O)C[C@@H]3C)ccn2)c1 [Compound 154, 4-((2S,4S)-4-hydroxy-2-methylpyrrolidine-1-carbonyl)-N-(3-((S)-1-((4-methyl-4H-1,2,4-triazol-3-yl)thio)ethyl)phenyl)picolinamide] | ≤ 10 | 3 to 10 | > 10 | 
20 | C[C@H](Sc1nncn1C)c1cccc(NC(=O)c2cc(C(=O)N3C[C@H](O)[C@@H](O)C3)ccn2)c1 [Compound 155, 4-[[(3S,4S)-3,4-dihydroxypyrrolidin-1-yl]carbonyl]-N-[3-[(1S)-1-[(4-methyl-4H-1,2,4-triazol-3-yl)sulfanyl]ethyl]phenyl]pyridine-2-carboxamide] | ≤ 10 | 1 to 3 | 3 to 10 | 
21 | C[C@H](Sc1nncn1C)c1cccc(NC(=O)c2cc(C(=O)NC[C@@H](C)O)ccn2)c1 [Compound 156, N^4-((R)-2-hydroxypropyl)-N^2-(3-((S)-1-((4-methyl-4H-1,2,4-triazol-3-yl)thio)ethyl)phenyl)pyridine-2,4-dicarboxamide] | ≤ 10 | 3 to 10 | 3 to 10 | 
22 | C[C@H](O)CNC(=O)c1ccnc(C(=O)Nc2cccc([C@H](C)Sc3nncn3C)c2)c1 [Compound 157, N^4-((S)-2-hydroxypropyl)-N^2-(3-((S)-1-((4-methyl-4H-1,2,4-triazol-3-yl)thio)ethyl)phenyl)pyridine-2,4-dicarboxamide] | ≤ 10 | 3 to 10 | 3 to 10 | 
23 | C[C@H](Sc1nncn1C)c1cccc(NC(=O)c2cc(C(=O)N3CC[C@@H](N(C)C)C3)ccn2)c1 [Compound 159, 4-((R)-3-(dimethylamino)pyrrolidine-1-carbonyl)-N-(3-((S)-1-((4-methyl-4H-1,2,4-triazol-3-yl)thio)ethyl)phenyl)picolinamide] | ≤ 10 | 3 to 10 | 3 to 10 | 
24 | C[C@H](Sc1nncn1C)c1cccc(NC(=O)c2cc(C(=O)N3CC[C@H](N(C)C)C3)ccn2)c1 [Compound 160, 4-((S)-3-(dimethylamino)pyrrolidine-1-carbonyl)-N-(3-((S)-1-((4-methyl-4H-1,2,4-triazol-3-yl)thio)ethyl)phenyl)picolinamide] | ≤ 10 | 3 to 10 | 3 to 10 | 
25 | C[C@@H](Sc1nncn1C)c1cccc(NC(=O)c2cc(C(=O)N3CC[C@H](O)C3)ccn2)c1 [Compound 161, 4-[[(3S)-3-hydroxypyrrolidin-1-yl]carbonyl]-N-[3-[(1R)-1-[(4-methyl-4H-1,2,4-triazol-3-yl)sulfanyl]ethyl]phenyl]pyridine-2-carboxamide] | ≤ 10 | 3 to 10 | > 10 | 
